In ChEMBL document CHEMBL1201862, “PubChem BioAssay data set” (2004):
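Tested at 5 concentrations; 48 h exposure; 96-well plates; endpoints linearly interpolated, else capped at highest concentration. GI50: concentration for 50% inhibition of growth.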 Calls of active or inactive are those of the source. No stated cut-off is given here; in the data, active = GI50 up to about 1.1 µM and inactive = higher.

Tests used:
Experiment in all cases: NCI-60 cell line screen, 48 h
NCI-H460 = system: NCI-H460
SN12C = system: SN12C
Malme-3M = system: Malme-3M
SK-MEL-28 = system: SK-MEL-28
HCT-15 = system: HCT-15
BT-549 = system: BT-549
COLO 205 = system: COLO 205
RXF 393 = system: RXF 393
NCI-H23 = system: NCI-H23
K562 = system: K562
EKVX = system: EKVX
MDA-MB-435 = system: MDA-MB-435
PC-3 = system: PC-3
SK-MEL-5 = system: SK-MEL-5
TK-10 = system: TK-10
SNB-19 = system: SNB-19
HOP-62 = system: HOP-62
HCT-116 = system: HCT-116
OVCAR-3 = system: OVCAR-3

Measured: GI50

CCC(=O)NCCc1c[nH]c2ccc(OC)cc12
> 100 µM: HCT-15
inactive: NCI-H460 > 100 µM | SN12C > 100 µM | Malme-3M > 100 µM | SK-MEL-28 > 100 µM | BT-549 > 100 µM | COLO 205 > 100 µM | RXF 393 > 100 µM | NCI-H23 > 100 µM | K562 > 100 µM | EKVX > 100 µM | MDA-MB-435 > 100 µM | PC-3 > 100 µM | SK-MEL-5 > 100 µM | TK-10 > 100 µM | SNB-19 > 100 µM | HOP-62 > 100 µM | HCT-116 > 100 µM | OVCAR-3 > 100 µM

CCCCCCCCC[n+]1cccc(C2C(C(=O)OCC)=C(C)NC(C)=C2C(=O)OCC)c1
16 µM: HCT-15
inactive: NCI-H460 5.7 µM | SN12C 4.67 µM | Malme-3M 1.9 µM | SK-MEL-28 2.44 µM | BT-549 1.71 µM | COLO 205 2.56 µM | RXF 393 2.03 µM | NCI-H23 4.36 µM | K562 3.89 µM | EKVX 11.9 µM | MDA-MB-435 2.08 µM | PC-3 4.27 µM | SK-MEL-5 1.88 µM | TK-10 10.7 µM | SNB-19 3.45 µM | HOP-62 13 µM | HCT-116 4 µM | OVCAR-3 3.86 µM

C/C(=N\N=C1/C(=O)OC(c2ccccc2)=C1C(=O)c1ccccc1)c1ccc([N+](=O)[O-])cc1
23.7 µM: HCT-15
inactive: NCI-H460 56.1 µM | SN12C 49.4 µM | Malme-3M 37.4 µM | SK-MEL-28 54.7 µM | BT-549 25.9 µM | COLO 205 52.2 µM | RXF 393 46 µM | NCI-H23 92.9 µM | K562 35 µM | EKVX 36.3 µM | MDA-MB-435 46.7 µM | PC-3 65.9 µM | SK-MEL-5 37 µM | TK-10 > 100 µM | SNB-19 > 100 µM | HOP-62 > 100 µM | HCT-116 91.4 µM | OVCAR-3 33.7 µM

N#Cc1c(O)c(/N=N/c2ccccc2F)c(=O)n2c1[nH]c1ccccc12
37.2 µM: HCT-15
inactive: NCI-H460 32.6 µM | SN12C 31.6 µM | Malme-3M 28.5 µM | SK-MEL-28 29.4 µM | BT-549 60 µM | COLO 205 55.1 µM | RXF 393 37.8 µM | NCI-H23 38.2 µM | K562 36.3 µM | EKVX > 100 µM | MDA-MB-435 21.6 µM | PC-3 30.3 µM | SK-MEL-5 42 µM | TK-10 55.6 µM | SNB-19 48.1 µM | HOP-62 43.7 µM | HCT-116 26.6 µM | OVCAR-3 36 µM

C=CCC1(O)c2ccccc2C(=O)c2c(O)ccc(O)c21 (stereo not given)
inactive: NCI-H460 3.52 µM | SN12C 11.6 µM | Malme-3M 3.4 µM | SK-MEL-28 8.28 µM | BT-549 6.03 µM | COLO 205 13.3 µM | RXF 393 4.12 µM | NCI-H23 10.7 µM | K562 11.1 µM | EKVX 11.4 µM | MDA-MB-435 1.8 µM | PC-3 8.2 µM | SK-MEL-5 8.2 µM | TK-10 14.6 µM | SNB-19 6.5 µM | HOP-62 12.4 µM | HCT-116 5.42 µM | OVCAR-3 5.65 µM
3.61 µM: HCT-15

COc1ccc2c(c1)CCc1cc(OC)ccc1/[N+]([O-])=[N+]\2[O-]
inactive: NCI-H460 19.1 µM | SN12C 16.2 µM | Malme-3M 19.5 µM | SK-MEL-28 18.7 µM | BT-549 14.8 µM | COLO 205 14.5 µM | RXF 393 2.86 µM | NCI-H23 23.1 µM | K562 8.91 µM | EKVX 20.8 µM | MDA-MB-435 16.3 µM | PC-3 14.8 µM | SK-MEL-5 16.3 µM | TK-10 22.4 µM | SNB-19 21.6 µM | HOP-62 21.6 µM | HCT-116 12.4 µM | OVCAR-3 16.6 µM
15.6 µM: HCT-15

Cc1nn(-c2ccccc2)c(C)c1/C=N/N=C1\SCC(=O)N1c1ccccc1
inactive: NCI-H460 18.3 µM | SN12C 44.7 µM | Malme-3M 21.2 µM | SK-MEL-28 22.3 µM | BT-549 22 µM | COLO 205 14.9 µM | RXF 393 16.5 µM | NCI-H23 27.5 µM | K562 25.8 µM | EKVX 12.4 µM | MDA-MB-435 20.5 µM | PC-3 19.2 µM | SK-MEL-5 15 µM | TK-10 26.2 µM | SNB-19 43.1 µM | HOP-62 37.9 µM | HCT-116 19.1 µM | OVCAR-3 24.9 µM
17.9 µM: HCT-15

Cc1nc(C)c(N2CCN(C#N)CC2)c(O)n1
inactive: NCI-H460 > 100 µM | SN12C > 100 µM | Malme-3M > 100 µM | SK-MEL-28 > 100 µM | BT-549 > 100 µM | COLO 205 > 100 µM | RXF 393 > 100 µM | NCI-H23 > 100 µM | K562 > 100 µM | EKVX > 100 µM | MDA-MB-435 > 100 µM | PC-3 > 100 µM | SK-MEL-5 > 100 µM | TK-10 > 100 µM | SNB-19 > 100 µM | HOP-62 > 100 µM | HCT-116 > 100 µM | OVCAR-3 > 100 µM
> 100 µM: HCT-15

COC(=O)c1cc(C)n(CN(Cn2nc(C(=O)OC)cc2C)c2ccccc2)n1
inactive: NCI-H460 57.9 µM | SN12C 55.1 µM | Malme-3M 43.2 µM | SK-MEL-28 32.8 µM | BT-549 31 µM | COLO 205 16 µM | RXF 393 20.1 µM | NCI-H23 25.2 µM | K562 20 µM | EKVX > 100 µM | MDA-MB-435 42.9 µM | PC-3 28.3 µM | SK-MEL-5 36 µM | TK-10 > 100 µM | SNB-19 > 100 µM | HOP-62 97.3 µM | HCT-116 19.6 µM | OVCAR-3 > 100 µM
18 µM: HCT-15

CON(C)C(=O)CNC(=O)OCC1c2ccccc2-c2ccccc21
inactive: NCI-H460 > 100 µM | SN12C > 100 µM | Malme-3M > 100 µM | SK-MEL-28 > 100 µM | BT-549 > 100 µM | COLO 205 > 100 µM | RXF 393 > 100 µM | NCI-H23 > 100 µM | K562 40.7 µM | EKVX > 100 µM | MDA-MB-435 > 100 µM | PC-3 85.1 µM | SK-MEL-5 84.5 µM | TK-10 > 100 µM | SNB-19 > 100 µM | HOP-62 > 100 µM | HCT-116 18.6 µM | OVCAR-3 > 100 µM
78 µM: HCT-15

COC(=O)c1c(OC(C)=O)ccc2c1c1c(n2Cc2ccccc2)C(=O)c2ccccc2C1=O
19.7 µM: HCT-15
inactive: NCI-H460 30.1 µM | SN12C 19.1 µM | Malme-3M 30 µM | SK-MEL-28 21.4 µM | BT-549 23.2 µM | COLO 205 16.9 µM | RXF 393 18.8 µM | NCI-H23 19.5 µM | K562 25.7 µM | EKVX 19.6 µM | MDA-MB-435 18.7 µM | PC-3 22.4 µM | SK-MEL-5 14.2 µM | TK-10 33.7 µM | SNB-19 35.3 µM | HOP-62 24.1 µM | HCT-116 15.7 µM | OVCAR-3 17.6 µM

Brc1ccc(/C(N=N/C(=N\Sc2ccccc2)c2ccc(Br)cc2)=N/Sc2ccccc2)cc1
inactive: NCI-H460 > 100 µM | SN12C > 100 µM | Malme-3M > 100 µM | SK-MEL-28 > 100 µM | BT-549 > 100 µM | COLO 205 > 100 µM | RXF 393 > 100 µM | NCI-H23 > 100 µM | K562 > 100 µM | EKVX > 100 µM | MDA-MB-435 > 100 µM | PC-3 > 100 µM | SK-MEL-5 > 100 µM | TK-10 > 100 µM | SNB-19 > 100 µM | HOP-62 > 100 µM | HCT-116 > 100 µM | OVCAR-3 > 100 µM
> 100 µM: HCT-15

Cc1csc2nc(-c3ccc([N+](=O)[O-])cc3)c(/C=N/N=C(N)N)n12
inactive: NCI-H460 1.79 µM | SN12C 1.71 µM | Malme-3M 1.53 µM | SK-MEL-28 1.74 µM | COLO 205 1.53 µM | RXF 393 1.79 µM | NCI-H23 1.64 µM | K562 1.81 µM | EKVX 1.39 µM | MDA-MB-435 1.64 µM | PC-3 1.69 µM | SK-MEL-5 1.91 µM | TK-10 1.92 µM | SNB-19 1.92 µM | HOP-62 1.7 µM | HCT-116 1.81 µM | OVCAR-3 2.49 µM
0.791 µM: HCT-15
active: BT-549 0.189 µM

C=C1C(=O)OC2CC(C)C(C(O)CC(C)O)=CCC12 (stereo not given)
14.2 µM: HCT-15
inactive: NCI-H460 18.9 µM | SN12C 11.4 µM | Malme-3M 7.74 µM | SK-MEL-28 9.62 µM | BT-549 13.4 µM | COLO 205 10.5 µM | RXF 393 12.5 µM | NCI-H23 15.6 µM | K562 14.1 µM | EKVX 12.5 µM | MDA-MB-435 19.6 µM | PC-3 21.6 µM | SK-MEL-5 19.4 µM | TK-10 9.14 µM | SNB-19 28.4 µM | HOP-62 26.2 µM | HCT-116 8.71 µM | OVCAR-3 9.62 µM

CO[C@@H]1[C@@H](OC2OC(C)C(OC3CC(C)(O)C(OC(=O)CC(C)C)C(C)O3)C(N(C)C)C2O)[C@@H](CC=O)C[C@@H](C)C(=O)/C=C/C2O[C@H]2C[C@@H](C)OC(=O)C[C@H]1OC(C)=O (stereo not given in full)
18.6 µM: HCT-15
inactive: NCI-H460 16.8 µM | SN12C 15.4 µM | Malme-3M 14 µM | SK-MEL-28 18.5 µM | BT-549 17.6 µM | COLO 205 12.9 µM | RXF 393 20.7 µM | NCI-H23 18.9 µM | K562 12.1 µM | EKVX 22.4 µM | MDA-MB-435 17.7 µM | PC-3 15.5 µM | SK-MEL-5 15.3 µM | TK-10 24.9 µM | SNB-19 22 µM | HOP-62 19 µM | HCT-116 14.9 µM | OVCAR-3 14.3 µM
